Reference: PubChem BioAssay (NCI)
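The compound was tested at five concentrations on cells cultured in 96-well plates, with a 48-hour exposure period. At the GI50, growth is halved. TGI: concentration producing complete growth inhibition.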

Columns and labels:
Experiment in all cases: inhibition of tumour cell growth, NCI panel, 48 h
HOP-92 NSCLC = test system: HOP-92 NSCLC
NCI/ADR-RES ovarian = test system: NCI/ADR-RES ovarian
SK-MEL-28 melanoma = test system: SK-MEL-28 melanoma
T-47D breast = test system: T-47D breast
OVCAR-8 ovarian = test system: OVCAR-8 ovarian
SR leukemia = test system: SR leukemia
SW-620 colon = test system: SW-620 colon
CAKI-1 renal = test system: CAKI-1 renal
HOP-62 NSCLC = test system: HOP-62 NSCLC
A549 NSCLC = test system: A549 NSCLC
HT29 colon = test system: HT29 colon
UACC-257 melanoma = test system: UACC-257 melanoma
A498 renal = test system: A498 renal
MOLT-4 leukemia = test system: MOLT-4 leukemia
SK-OV-3 ovarian = test system: SK-OV-3 ovarian
MDA-MB-231 breast = test system: MDA-MB-231 breast
TK-10 renal = test system: TK-10 renal
KM12 colon = test system: KM12 colon
SF-539 CNS = test system: SF-539 CNS
SNB-19 CNS = test system: SNB-19 CNS
HL-60(TB) leukemia = test system: HL-60(TB) leukemia
PC-3 prostate = test system: PC-3 prostate
SK-MEL-2 melanoma = test system: SK-MEL-2 melanoma
SF-295 CNS = test system: SF-295 CNS
OVCAR-4 ovarian = test system: OVCAR-4 ovarian
HCC-2998 colon = test system: HCC-2998 colon
UACC-62 melanoma = test system: UACC-62 melanoma
NCI-H226 lung = test system: NCI-H226 lung
RXF 393 renal = test system: RXF 393 renal
OVCAR-3 ovarian = test system: OVCAR-3 ovarian
HCT-116 colon = test system: HCT-116 colon
SNB-75 CNS = test system: SNB-75 CNS
SN12C renal = test system: SN12C renal
OVCAR-5 ovarian = test system: OVCAR-5 ovarian
K-562 leukemia = test system: K-562 leukemia
MALME-3M melanoma = test system: MALME-3M melanoma
SK-MEL-5 melanoma = test system: SK-MEL-5 melanoma
HS 578T breast = test system: HS 578T breast
M14 melanoma = test system: M14 melanoma
COLO 205 colon = test system: COLO 205 colon
EKVX NSCLC = test system: EKVX NSCLC
NCI-H460 lung = test system: NCI-H460 lung
HCT-15 colon = test system: HCT-15 colon
DU-145 prostate = test system: DU-145 prostate
MDA-MB-435 = test system: MDA-MB-435
SF-268 CNS = test system: SF-268 CNS
NCI-H23 lung = test system: NCI-H23 lung
BT-549 breast = test system: BT-549 breast
CCRF-CEM leukemia = test system: CCRF-CEM leukemia
U251 CNS = test system: U251 CNS
IGROV1 ovarian = test system: IGROV1 ovarian
MCF7 breast = test system: MCF7 breast

O=C(CSc1nnc(-c2ccc(Cl)cc2)n1-c1ccccc1)Nc1cccc(F)c1 was tested, and the GI50 (HOP-92 NSCLC) was 4 µM, the TGI (HOP-92 NSCLC) was over 100 µM and the GI50 (NCI/ADR-RES ovarian) was 2.26 µM. It also gave a TGI (NCI/ADR-RES ovarian) of 8.77 µM, a GI50 (SK-MEL-28 melanoma) of over 100 µM and a TGI (SK-MEL-28 melanoma) of over 100 µM. It also gave a GI50 (T-47D breast) of 1.58 µM, a TGI (T-47D breast) of over 100 µM and a GI50 (OVCAR-8 ovarian) of 3.03 µM. For the same molecule, the TGI (OVCAR-8 ovarian) was over 100 µM, the GI50 (SR leukemia) was over 35.3 µM and the TGI (SR leukemia) was over 100 µM. For the same molecule, the GI50 (SW-620 colon) was 5 µM, the TGI (SW-620 colon) was over 100 µM and the GI50 (CAKI-1 renal) was 2.89 µM. It also gave a TGI (CAKI-1 renal) of over 100 µM, a GI50 (HOP-62 NSCLC) of 3.18 µM and a TGI (HOP-62 NSCLC) of over 26.4 µM. It also gave a GI50 (A549 NSCLC) of 2.77 µM, a TGI (A549 NSCLC) of over 100 µM and a GI50 (HT29 colon) of over 27 µM. The TGI (HT29 colon) was over 100 µM, the GI50 (UACC-257 melanoma) was over 100 µM and the TGI (UACC-257 melanoma) was over 100 µM. For the same molecule, the GI50 (A498 renal) was 4.5 µM, the TGI (A498 renal) was 73.9 µM and the GI50 (MOLT-4 leukemia) was over 100 µM. The TGI (MOLT-4 leukemia) was over 100 µM, the GI50 (SK-OV-3 ovarian) was 10.2 µM and the TGI (SK-OV-3 ovarian) was over 100 µM. It also gave a GI50 (MDA-MB-231 breast) of 2.36 µM, a TGI (MDA-MB-231 breast) of over 24.2 µM and a GI50 (TK-10 renal) of 4.65 µM. It also gave a TGI (TK-10 renal) of over 100 µM, a GI50 (KM12 colon) of over 21 µM and a TGI (KM12 colon) of over 100 µM. It also gave a GI50 (SF-539 CNS) of 2.33 µM, a TGI (SF-539 CNS) of over 22.4 µM and a GI50 (SNB-19 CNS) of 6.27 µM. The TGI (SNB-19 CNS) was over 100 µM, the GI50 (HL-60(TB) leukemia) was over 100 µM and the TGI (HL-60(TB) leukemia) was over 100 µM. The GI50 (PC-3 prostate) was over 100 µM, the TGI (PC-3 prostate) was over 100 µM and the GI50 (SK-MEL-2 melanoma) was over 100 µM. It also gave a TGI (SK-MEL-2 melanoma) of over 100 µM, a GI50 (SF-295 CNS) of 3.98 µM and a TGI (SF-295 CNS) of over 70.6 µM. It also gave a GI50 (OVCAR-4 ovarian) of over 100 µM, a TGI (OVCAR-4 ovarian) of over 100 µM and a GI50 (HCC-2998 colon) of over 30.3 µM. It also gave a TGI (HCC-2998 colon) of over 100 µM, a GI50 (UACC-62 melanoma) of over 100 µM and a TGI (UACC-62 melanoma) of over 100 µM. It also gave a GI50 (NCI-H226 lung) of 4.11 µM, a TGI (NCI-H226 lung) of over 100 µM and a GI50 (RXF 393 renal) of 2.86 µM. The TGI (RXF 393 renal) was over 36 µM, the GI50 (OVCAR-3 ovarian) was 4.11 µM and the TGI (OVCAR-3 ovarian) was 73.9 µM. For the same molecule, the GI50 (HCT-116 colon) was 2.38 µM, the TGI (HCT-116 colon) was over 100 µM and the GI50 (SNB-75 CNS) was 2.09 µM. The TGI (SNB-75 CNS) was over 30.5 µM, the GI50 (SN12C renal) was 1.91 µM and the TGI (SN12C renal) was 6.26 µM. It also gave a TGI (OVCAR-5 ovarian) of over 100 µM, a GI50 (K-562 leukemia) of over 100 µM and a TGI (K-562 leukemia) of over 100 µM. It also gave a GI50 (MALME-3M melanoma) of 3.9 µM, a TGI (MALME-3M melanoma) of over 100 µM and a GI50 (SK-MEL-5 melanoma) of over 55.4 µM. The TGI (SK-MEL-5 melanoma) was over 100 µM, the GI50 (HS 578T breast) was 3.3 µM and the TGI (HS 578T breast) was over 100 µM. It also gave a GI50 (M14 melanoma) of over 100 µM, a TGI (M14 melanoma) of over 100 µM and a GI50 (COLO 205 colon) of over 100 µM. It also gave a TGI (COLO 205 colon) of over 100 µM, a GI50 (EKVX NSCLC) of over 23 µM and a TGI (EKVX NSCLC) of over 100 µM. It also gave a GI50 (NCI-H460 lung) of 1.49 µM, a GI50 (HCT-15 colon) of over 100 µM and a TGI (HCT-15 colon) of over 100 µM. For the same molecule, the GI50 (DU-145 prostate) was over 30.3 µM, the TGI (DU-145 prostate) was over 100 µM and the GI50 (MDA-MB-435) was over 100 µM. The TGI (MDA-MB-435) was over 100 µM, the GI50 (SF-268 CNS) was over 21.4 µM and the TGI (SF-268 CNS) was over 100 µM. The GI50 (NCI-H23 lung) was 5.14 µM, the TGI (NCI-H23 lung) was over 100 µM and the GI50 (BT-549 breast) was over 100 µM. It also gave a TGI (BT-549 breast) of over 100 µM, a GI50 (CCRF-CEM leukemia) of over 100 µM and a TGI (CCRF-CEM leukemia) of over 100 µM. It also gave a GI50 (U251 CNS) of 1.62 µM, a TGI (U251 CNS) of 4.46 µM and a GI50 (IGROV1 ovarian) of 3.2 µM. It also gave a TGI (IGROV1 ovarian) of over 100 µM, a GI50 (MCF7 breast) of 3.47 µM and a TGI (MCF7 breast) of over 100 µM.
